This note sets out measurements from ChEMBL document CHEMBL1148212, “New sphingosines from a gorgonian, Pseudopterogorgia australiensis Ridley, of the Indian Ocean” (J Nat Prod, 2004).

Calls of active or inactive are those of the source. The calls are words filed in the database; no cut-off is given here.

Common to all, as to type: functional, organism-based
For one assay, the system named is Bacillus pumilus. Briefly: Antimicrobial activity against Bacillus pumilus at 1 mg/mL by cup diffusion method.
The subject of another assay is Bacillus subtilis. Briefly: Antimicrobial activity against Bacillus subtilis at 1 mg/mL by cup diffusion method.
For the next assay, the system named is Staphylococcus aureus. Nature of the assay: Antimicrobial activity against Staphylococcus aureus at 1 mg/mL by cup diffusion method.
For the next assay, the system named is Escherichia coli. Nature of the assay: Antimicrobial activity against Escherichia coli at 1 mg/mL by cup diffusion method.
For the next assay, the system named is Proteus vulgaris. Briefly: Antimicrobial activity against Proteus vulgaris at 1 mg/mL by cup diffusion method.
The test system of a further assay is Pseudomonas aeruginosa. Briefly: Antimicrobial activity against Pseudomonas aeruginosa at 1 mg/mL by cup diffusion method.
The subject of another assay is Candida albicans. Briefly: Antimicrobial activity against Candida albicans.
Another assay concerns Aspergillus niger. Nature of the assay: Antimicrobial activity against Aspergillus niger.

On to `CCCCCCCCCCCCC/C=C/[C@@H](O)[C@H](CO)NC(=O)CCCCCCCCCCCCCCCC`, for which the outcome in the assay with Bacillus pumilus, in the assay on Bacillus subtilis, in the assay with Staphylococcus aureus, in the assay on Escherichia coli, with Proteus vulgaris and with Pseudomonas aeruginosa was Active. Besides, the result in the assay with Candida albicans and in the assay with Aspergillus niger was inactive.

Turning to `CCCCCCCCCCCCCCCCC[C@@H](O)C(=O)N[C@@H](CO)[C@H](O)[C@H](O)CCCCCCCCCCCCCCC`, the outcome with Bacillus pumilus, in the assay with Bacillus subtilis, in the assay with Staphylococcus aureus, in the assay with Escherichia coli, with Proteus vulgaris and with Pseudomonas aeruginosa was Active. In addition, the outcome with Candida albicans and in the assay on Aspergillus niger was inactive.

For `CCCCCCCCCCCCCCCCCCCCCC(=O)N[C@@H](CO)[C@H](O)CCCCCCCCCCCCCCCC`, the result with Bacillus pumilus, in the assay on Bacillus subtilis, in the assay on Staphylococcus aureus, with Escherichia coli, with Proteus vulgaris and in the assay on Pseudomonas aeruginosa was Active. Also, the outcome with Candida albicans and in the assay on Aspergillus niger was inactive.
